Data on 21 molecules can be found in patent US8586579B2, “Anellated pyridine compounds” (Hoffmann-La Roche Inc., priority 2010, dated 2013).

The structures appear in SMILES notation. Like-named read-outs stand apart in the source and are kept apart here.

One series has as its target human D2 receptor (Homo sapiens (Human), UniProt P14416). The series can be described thus: Radioligand binding assay, [3H]-spiperone, human D2 receptor. To be noted: membranes of HEK293 EBNA cells expressing human D2; 0.7 nM [3H]-spiperone. In a few lines:
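Membranes from HEK293 EBNA cells transiently expressing human D2 were incubated 1 h at RT with ~0.7 nM [3H]-spiperone and ten compound concentrations (10 μM–0.1 nM) in Tris buffer with NaCl, MgCl2, KCl, CaCl2, EDTA, pH 7.4.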

Another series addresses human D3 receptor (Homo sapiens (Human), UniProt P35462). The series can be described thus: Radioligand binding assay, [3H]-spiperone, human D3 receptor. To be noted: membranes of HEK293 EBNA cells expressing human D3; 0.5 nM [3H]-spiperone. In a few lines: (§1)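 Membranes from transiently transfected HEK293 EBNA cells were incubated 1 h at RT with ten compound concentrations (10 μM-0.1 nM) and radioligand: 0.5 nM [3H]-spiperone for D3 (Tris/NaCl/Mg/Ca buffer, pH 7.4) or 1.1 nM [3H]-ketanserin for 5-HT2A (Tris/MgCl2/EGTA, pH 7.4).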

In another series the target is human 5-HT2A receptor (Homo sapiens (Human), UniProt P28223). The series can be described thus: Radioligand binding assay, [3H]-ketanserin, human 5-HT2A receptor. In a few lines: as §1
[1] abbreviates: membranes of HEK293 EBNA cells expressing human 5-HT2A, 1.1 nM [3H]-ketanserin.

Chain of human D2 receptor (P14416 whole entry): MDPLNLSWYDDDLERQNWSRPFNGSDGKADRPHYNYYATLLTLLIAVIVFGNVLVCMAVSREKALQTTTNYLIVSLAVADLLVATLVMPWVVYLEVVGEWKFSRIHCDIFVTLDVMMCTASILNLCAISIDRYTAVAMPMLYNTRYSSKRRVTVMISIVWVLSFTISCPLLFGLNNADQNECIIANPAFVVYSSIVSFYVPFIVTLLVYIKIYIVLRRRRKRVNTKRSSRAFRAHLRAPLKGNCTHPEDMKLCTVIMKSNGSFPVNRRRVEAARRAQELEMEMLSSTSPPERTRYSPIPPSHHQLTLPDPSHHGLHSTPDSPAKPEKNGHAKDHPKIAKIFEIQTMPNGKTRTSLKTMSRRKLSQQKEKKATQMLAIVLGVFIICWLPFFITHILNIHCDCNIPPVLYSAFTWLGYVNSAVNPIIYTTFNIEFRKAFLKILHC
Chain of human D3 receptor (P35462 whole entry): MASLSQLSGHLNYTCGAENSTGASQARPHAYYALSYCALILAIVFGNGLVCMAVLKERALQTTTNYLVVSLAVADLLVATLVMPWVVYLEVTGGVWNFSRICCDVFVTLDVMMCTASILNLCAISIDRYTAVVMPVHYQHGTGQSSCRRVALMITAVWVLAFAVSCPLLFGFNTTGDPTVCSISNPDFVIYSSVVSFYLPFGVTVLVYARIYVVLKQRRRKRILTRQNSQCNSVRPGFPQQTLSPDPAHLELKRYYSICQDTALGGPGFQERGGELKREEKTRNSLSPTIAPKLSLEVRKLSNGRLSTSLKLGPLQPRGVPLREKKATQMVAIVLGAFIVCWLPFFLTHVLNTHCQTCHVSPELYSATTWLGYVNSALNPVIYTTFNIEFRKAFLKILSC
Chain of human 5-HT2A receptor (P28223 whole entry): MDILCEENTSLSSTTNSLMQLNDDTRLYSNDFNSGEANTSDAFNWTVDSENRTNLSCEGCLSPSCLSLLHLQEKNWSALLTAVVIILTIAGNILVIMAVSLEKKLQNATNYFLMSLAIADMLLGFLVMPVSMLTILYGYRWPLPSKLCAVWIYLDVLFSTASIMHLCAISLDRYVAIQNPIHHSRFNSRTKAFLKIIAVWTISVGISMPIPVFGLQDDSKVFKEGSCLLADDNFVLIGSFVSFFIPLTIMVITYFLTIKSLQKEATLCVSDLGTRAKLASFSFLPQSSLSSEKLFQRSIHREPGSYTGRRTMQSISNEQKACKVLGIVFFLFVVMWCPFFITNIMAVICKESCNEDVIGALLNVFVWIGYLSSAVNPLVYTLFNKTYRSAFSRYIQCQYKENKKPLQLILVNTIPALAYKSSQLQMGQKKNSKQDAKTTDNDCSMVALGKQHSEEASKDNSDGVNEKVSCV

With `CN(C)C(=O)CCC(=O)N[C@H]1CC[C@H](CCN2CCN(c3nccc4c3CCO4)CC2)CC1` [Example 86, trans-N-(4-{2-[4-(2,3-Dihydro-furo[3,2-c]pyridin-4-yl)-piperazin-1-yl]-ethyl}-cyclohexyl)-N′,N′-dimethyl-succinamide], the melting point (in general, the temperature of the solid-liquid transition) stood at 188 °C. In addition, the inhibitory constant (Ki) (commonly a measure of affinity in units of concentration, obtained from inhibition or displacement) at human D2 receptor is 2560 nM. Moreover, the Ki at human D3 receptor was determined as 37.6 nM. In addition, at human 5-HT2A receptor (setting [1]), the Ki was found to be 23.9 nM.

Regarding `O=C(N[C@H]1CC[C@H](CCN2CCN(c3nccc4c3CCO4)CC2)CC1)C1CCC1` [Example 52, Cyclobutanecarboxylic acid trans-(4-{2-[4-(2,3-dihydro-furo[3,2-c]pyridin-4-yl)-piperazin-1-yl]-ethyl}-cyclohexyl)-amide], the melting point worked out at 202 °C. Further, on human D2 receptor, the Ki was found to be 555 nM. Moreover, the inhibition constant (Ki) at human D3 receptor stood at 15.7 nM. Further, the Ki on human 5-HT2A receptor (setting [1]) worked out at 10.1 nM.

Molecule `O=C(CC1CCC1)N[C@H]1CC[C@H](CCN2CCN(c3nccc4c3CCO4)CC2)CC1` [Example 73, trans-2-Cyclobutyl-N-(4-{2-[4-(2,3-dihydro-furo[3,2-c]pyridin-4-yl)-piperazin-1-yl]-ethyl}-cyclohexyl)-acetamide] gave a melting point of 193 °C. The Ki on human D2 receptor turned out to be 603 nM. Further, the Ki on human D3 receptor is 8.92 nM. For the same molecule, the inhibition constant (Ki) on human 5-HT2A receptor (setting [1]) worked out at 13.3 nM.

For the molecule `CC(C)(O)CC(=O)N[C@H]1CC[C@H](CCN2CCN(c3nccc4c3CCO4)CC2)CC1` [Example 87, trans-N-(4-{2-[4-(2,3-Dihydro-furo[3,2-c]pyridin-4-yl)-piperazin-1-yl]-ethyl}-cyclohexyl)-3-hydroxy-3-methyl-butyramide], the melting point came out at 208 °C. For the same molecule, the inhibition constant (Ki) on human D2 receptor is 1000 nM. Besides, at human D3 receptor, the inhibition constant Ki came to 21.6 nM. Moreover, on human 5-HT2A receptor (setting [1]), the Ki was 25 nM.

Molecule `O=C(N[C@H]1CC[C@H](CCN2CCN(c3nccc4c3CCO4)CC2)CC1)C1(O)CC1` [Example 58, 1-Hydroxy-cyclopropanecarboxylic acid trans-(4-{2-[4-(2,3-dihydro-furo[3,2-c]pyridin-4-yl)-piperazin-1-yl]-ethyl}-cyclohexyl)-amide] had a melting point of 174.5 °C. For the same molecule, the Ki at human D2 receptor amounted to 593 nM. On human D3 receptor, the Ki stood at 27.1 nM. In addition, at human 5-HT2A receptor (setting [1]), the Ki is 5.92 nM.

On to `O=C(CC1(O)CCC1)N[C@H]1CC[C@H](CCN2CCN(c3nccc4c3CCO4)CC2)CC1` [Example 141, trans-N-(4-{2-[4-(2,3-Dihydro-furo[3,2-c]pyridin-4-yl)-piperazin-1-yl]-ethyl}-cyclohexyl)-2-(1-hydroxy-cyclobutyl)-acetamide], for which the melting point was 155 °C. In addition, the Ki at human D2 receptor is 409 nM. Moreover, the Ki at human D3 receptor was determined as 25.8 nM. Further, at human 5-HT2A receptor, the Ki was found to be 22.5 nM.

For the molecule `Cc1cnc(N2CCN(CC[C@H]3CC[C@H](NC(=O)C4CCOCC4)CC3)CC2)c2ccoc12` [Example 105, trans-Tetrahydro-pyran-4-carboxylic acid (4-{2-[4-(7-methyl-furo[3,2-c]pyridin-4-yl)-piperazin-1-yl]-ethyl}-cyclohexyl)-amide], the melting point worked out at 228 °C. Further, the Ki at human D2 receptor was 1130 nM. For the same molecule, the Ki at human D3 receptor was determined as 72.7 nM. For the same molecule, on human 5-HT2A receptor, the Ki is 5.67 nM.

`CS(=O)(=O)N[C@H]1CC[C@H](CCN2CCN(c3nccc4c3CCO4)CC2)CC1` [Example 48, trans-N-(4-{2-[4-(2,3-Dihydro-furo[3,2-c]pyridin-4-yl)-piperazin-1-yl]-ethyl}-cyclohexyl)-methanesulfonamide] came in with a melting point of 220 °C. In addition, the Ki on human D2 receptor came to 1270 nM. Besides, on human D3 receptor, the inhibition constant (Ki) was found to be 31.6 nM. Further, the Ki at human 5-HT2A receptor (setting [1]) worked out at 21.7 nM.

`Cc1cnc(N2CCN(CC[C@H]3CC[C@H](NC(=O)C4CCOCC4)CC3)CC2)c2c1OCC2` [Example 109, Tetrahydro-pyran-4-carboxylic acid trans-(4-{2-[4-(7-methyl-2,3-dihydro-furo[3,2-c]pyridin-4-yl)-piperazin-1-yl]-ethyl}-cyclohexyl)-amide]: the melting point was 223.5 °C. The Ki on human D2 receptor was 4510 nM. Also, on human D3 receptor, the Ki came out at 98.7 nM. Besides, the Ki at human 5-HT2A receptor (setting [1]) was 19.7 nM.

In turn, `O=C(CC1C[C@H](O)CO1)N[C@H]1CC[C@H](CCN2CCN(c3nccc4c3CCO4)CC2)CC1` (stereo in doubt) [Example 91, trans-N-(4-{2-[4-(2,3-Dihydro-furo[3,2-c]pyridin-4-yl)-piperazin-1-yl]-ethyl}-cyclohexyl)-2-((S)-4-hydroxy-tetrahydro-furan-2-yl)-acetamide] displayed a melting point of 155 °C. Also, the inhibition constant Ki on human D2 receptor is 926 nM. For the same molecule, at human D3 receptor, the Ki is 14.2 nM. On human 5-HT2A receptor (setting [1]), the Ki came to 22.5 nM.

Turning to `CCCCC(=O)N[C@H]1CC[C@H](CCN2CCN(c3nccc4c3CCO4)CC2)CC1` [Example 94, Pentanoic acid trans-(4-{2-[4-(2,3-dihydro-furo[3,2-c]pyridin-4-yl)-piperazin-1-yl]-ethyl}-cyclohexyl)-amide], the melting point turned out to be 180.5 °C. At human D2 receptor, the inhibitory constant (Ki) was 1140 nM. In addition, the Ki on human D3 receptor turned out to be 19.2 nM. Further, the Ki on human 5-HT2A receptor (setting [1]) turned out to be 24.7 nM.

`CC(C)(C)CC(=O)N[C@H]1CC[C@H](CCN2CCN(c3nccc4c3CCO4)CC2)CC1` [Example 72, trans-N-(4-{2-[4-(2,3-Dihydro-furo[3,2-c]pyridin-4-yl)-piperazin-1-yl]-ethyl}-cyclohexyl)-3,3-dimethyl-butyramide] had a melting point of 192.5 °C. For the same molecule, the inhibitory constant (Ki) at human D2 receptor was 444 nM. The Ki on human D3 receptor was 17 nM. Further, the inhibition constant (Ki) at human 5-HT2A receptor (setting [1]) came out at 16.2 nM.

On to `CN(C)C(=O)N[C@H]1CC[C@H](CCN2CCN(c3nccc4c3CCO4)CC2)CC1` [Example 78, trans-3-(4-{2-[4-(2,3-Dihydro-furo[3,2-c]pyridin-4-yl)-piperazin-1-yl]-ethyl}-cyclohexyl)-1,1-dimethyl-urea], for which the melting point came to 260 °C. On human D2 receptor, the inhibition constant (Ki) stood at 322 nM. The inhibition constant Ki on human D3 receptor amounted to 92.8 nM. The Ki at human 5-HT2A receptor is 28.7 nM.

On to `O=C(N[C@H]1CC[C@H](CCN2CCN(c3nccc4c3CCO4)CC2)CC1)C1(O)CCC1` [Example 123, 1-Hydroxy-cyclobutanecarboxylic acid trans-(4-{2-[4-(2,3-dihydro-furo[3,2-c]pyridin-4-yl)-piperazin-1-yl]-ethyl}-cyclohexyl)-amide], for which the melting point came to 177.5 °C. For the same molecule, at human D2 receptor, the Ki came out at 959 nM. Besides, the Ki on human D3 receptor was determined as 131 nM. The Ki at human 5-HT2A receptor (setting [1]) worked out at 9.8 nM.

With `O=C(N[C@H]1CC[C@H](CCN2CCN(c3nccc4c3CCO4)CC2)CC1)C(F)(F)F` [Example 79, trans-N-(4-{2-[4-(2,3-Dihydro-furo[3,2-c]pyridin-4-yl)-piperazin-1-yl]-ethyl}-cyclohexyl)-2,2,2-trifluoro-acetamide], the melting point turned out to be 213 °C. In addition, the inhibition constant (Ki) at human D2 receptor is 773 nM. Further, the Ki on human D3 receptor came to 47.3 nM. At human 5-HT2A receptor (setting [1]), the Ki stood at 19.2 nM.

In turn, `N#Cc1ccc(C(=O)N[C@H]2CC[C@H](CCN3CCN(c4nccc5c4CCO5)CC3)CC2)cc1` [Example 117, trans-4-Cyano-N-(4-{2-[4-(2,3-dihydro-furo[3,2-c]pyridin-4-yl)-piperazin-1-yl]-ethyl}-cyclohexyl)-benzamide] had a melting point of 243.5 °C. In addition, at human D2 receptor, the Ki amounted to 381 nM. The inhibition constant (Ki) at human D3 receptor came out at 28 nM. Further, on human 5-HT2A receptor (setting [1]), the inhibition constant Ki turned out to be 13 nM.

The molecule `O=C(C[C@@H]1CCCO1)N[C@H]1CC[C@H](CCN2CCN(c3nccc4c3CCO4)CC2)CC1` [Example 69, trans-N-(4-{2-[4-(2,3-Dihydro-furo[3,2-c]pyridin-4-yl)-piperazin-1-yl]-ethyl}-cyclohexyl)-2-(S)-(tetrahydro-furan-2-yl)-acetamide] had a melting point of 183.5 °C. For the same molecule, the Ki on human D2 receptor came out at 858 nM. The Ki on human D3 receptor was 18.1 nM. The inhibition constant (Ki) at human 5-HT2A receptor is 24.9 nM.

In turn, `CO[C@H]1CC[C@H](CC(=O)N[C@H]2CC[C@H](CCN3CCN(c4nccc5c4CCO5)CC3)CC2)CC1` [Example 65, trans-N-(4-{2-[4-(2,3-Dihydro-furo[3,2-c]pyridin-4-yl)-piperazin-1-yl]-ethyl}-cyclohexyl)-2-trans-(4-methoxy-cyclohexyl)-acetamide] registered a melting point of 192.5 °C. The Ki on human D2 receptor is 2450 nM. Moreover, on human D3 receptor, the Ki came to 24.1 nM. Also, the Ki on human 5-HT2A receptor (setting [1]) turned out to be 14.9 nM.

`CC(=O)N[C@H]1CC[C@H](CCN2CCN(c3nc(C)cc4c3CCO4)CC2)CC1` [Example 100, trans-N-(4-{2-[4-(6-Methyl-2,3-dihydro-furo[3,2-c]pyridin-4-yl)-piperazin-1-yl]-ethyl}-cyclohexyl)-acetamide] yielded a melting point of 217.5 °C. Besides, the Ki at human D2 receptor amounted to 915 nM. On human D3 receptor, the inhibitory constant (Ki) is 7.58 nM. Besides, on human 5-HT2A receptor (setting [1]), the Ki was 215 nM.

For `COC(C)CC(=O)N[C@H]1CC[C@H](CCN2CCN(c3nccc4c3CCO4)CC2)CC1` (stereo partly drawn) [Example 139, trans-N-(4-{2-[4-(2,3-Dihydro-furo[3,2-c]pyridin-4-yl)-piperazin-1-yl]-ethyl}-cyclohexyl)-3-methoxy-butyramide], the melting point was 167 °C. Besides, the inhibitory constant (Ki) at human D2 receptor was 801 nM. In addition, the inhibitory constant (Ki) at human D3 receptor is 40.6 nM. Further, the Ki on human 5-HT2A receptor was 30.4 nM.

On to `O=C(CCC(F)(F)F)N[C@H]1CC[C@H](CCN2CCN(c3nccc4c3CCO4)CC2)CC1` [Example 95, trans-N-(4-{2-[4-(2,3-Dihydro-furo[3,2-c]pyridin-4-yl)-piperazin-1-yl]-ethyl}-cyclohexyl)-4,4,4-trifluoro-butyramide], for which the melting point came out at 195.5 °C. Also, at human D2 receptor, the Ki worked out at 1250 nM. Further, the inhibition constant Ki on human D3 receptor was 20 nM. In addition, the Ki at human 5-HT2A receptor came to 29.6 nM.
